From patent US12679836B2, “4H-pyrrolo[3,2-c]pyridin-4-one compounds” (Bayer Aktiengesellschaft, priority 2019, dated 2026) come the findings set out here.

Assay [1] concerns the target T1, EGFR with insertion of SVD between D770 and N771 (EGFR ins SVD) (Homo sapiens, UniProt P00533, DUP768-770).
T1 construct: made in house; host or cells: Sf9 insect cells (baculovirus)
Put plainly: Exon20-Mutant-EGFR(D770_N771insSVD) kinase assay (TR-FRET). Format: biochemical. The conditions noted are these: 2 mM ATP, several values per example where printed.

In assay [2] the test system is HCC-827 cells (EGFRex19del). Put plainly: HCC-827 proliferation assay (Cell Titer Glo). Format: cell-based. The following applies: Homo sapiens, HCC827, 72 h. As to the method: Cellular Data Description (HCC-827 Cells, EGFRex19del)
(§1) HCC-827 cells were purchased from ATCC. 400 HCC-829 cells per well were seeded in growth medium (RPM11640, 10% FCS) in a 384-well plate (CORNING #3571). Seed reference plate for time zero determination on the same day. All plates were incubated overnight at 37° C. After 24 hours, test compound were added in 7-step dilution using HP Compound printer and incubated at 37° C. for 72 h. After 3 days, 30 μL/well CTG solution (Promega Cell Titer Glo solution; catalog # G755B and G756B) were added to each well, incubated for 30 minutes and the plate were read on PheraStar. Proliferation is calculated after subtracting time zero luminescence values from day 4 values and comparing to untreated wells.
The IC50 values were determined using the four parameter fit.

The next assay has as its target Ba/F3-EGFR-L858R cells (Homo sapiens, UniProt P00533, L858R, cells depend on it). Put plainly: Ba/F3 cell survival assay, EGFR L858R. It counts as cell-based. The following applies: without IL-3, without EGF, 48 h; read-out: BA/F3 (EGFR L858R) IC50. The method, then:
(§2) 293T cells from ATCC were transfected with pBABEpuro expression constructs for mutant EGFR (V769_D770insASV, D770_N771insNPG, N771_P772insH, H773_V774insNPH, E746_A750del, L858R, D770_N771insSVD C797S, E746_A750del C797S, L858R C797S, L861Q) or mutant ERBB2 (A775_G776insYVMA) and pCL-Eco packaging vector using Fugene-6 transfection reagent from Promega. Plates were incubated at 37° C. for 48 h. Retrovirus was harvested by filtering the media supernatant through a 0.45 μm filter.
(§3) Ba/F3 cells purchased from DSMZ were grown in RPMI+10% FBS+10 ng/mL IL-3 and infected with filtered retroviral supernatant at a 1:2 dilution. Polybrene was added to a concentration of 8 μg/mL, plates were spun for 90 min, and incubated overnight at 37° C. 2 μg/mL puromycin was added to the infected cells 24 h after infection and cells were continually grown in the presence of puromycin and 10 ng/mL IL-3. Following stably expressing Ba/F3 cell lines were generated: Ba/F3-EGFR-V769_D770insASV, Ba/F3-EGFR-D770_N771insNPG, Ba/F3-EGFR-N771_P772insH, Ba/F3-EGFR-H773_V774insNPH, Ba/F3-EGFR-E746_A750del, Ba/F3-EGFR-L858R, Ba/F3-EGFR-D770_N771 insSVD C797S, Ba/F3-EGFR-E746_A750del C797S, Ba/F3-EGFR-L858R C797S, Ba/F3-EGFR L861Q and Ba/F3-ERBB2-A775_G776insYVMA (Ba/F3-vector-control).
(§4) For cell survival assays, Ba/F3 cells were grown to a density of 1-2 million cells per mL, spun down and resuspended in media without IL-3, and replated at a concentration 200,000-500,000 cells per mL. The cells ectopically expressing WT EGFR plated with 10 ng/mL Millipore Culture grade EGF and Ba/F3 cells containing mutant EGFR or Mutant ERBB2 were cultivated without EGF. The cells ectopically expressing pBABEpuro empty vector were plated with 10 ng/mL IL-3.
(§5) 2 days later, cells were plated in 50 μL in a 384 well plate at a concentration of 4000 cells per well for cells assayed in the absence of IL-3 and 2000 cells per well for cells assayed in the presence of IL-3. 100 nL of compound was added to each well using a 100 nL pin head, and plates were incubated at 37° C. for 48 h.
(§6) Cell viability was measured by adding 20 μL of Cell Titer-Glo Luminescent Cell Viability Reagent diluted 1:3 in PBS. Plates were sealed with Perkin Elmer Top-Seal, inverted several times to mix, and immediately centrifuged at 1000 rpm for 2 min. Plates were incubated in low light conditions for 8-10 min and luminescence was measured.

The target of assay [3] is Ba/F3-EGFR-D770_N771 insSVD C797S cells (Homo sapiens, UniProt P00533, DUP768-770/C797S, cells depend on it). Put plainly: Ba/F3 cell survival assay, EGFR D770_N771insSVD C797S. Format: cell-based. The following applies: without IL-3, without EGF, 48 h; read-out: BA/F3 (EGFR 0770_N771 insSVD C797S) IC50. As to the method: as §2, §3, §4, §5, §6
Sequence of Ba/F3-EGFR-D770_N771 insSVD C797S cells (P00533 with tags, fused parts or gaps DUP768-770/C797S): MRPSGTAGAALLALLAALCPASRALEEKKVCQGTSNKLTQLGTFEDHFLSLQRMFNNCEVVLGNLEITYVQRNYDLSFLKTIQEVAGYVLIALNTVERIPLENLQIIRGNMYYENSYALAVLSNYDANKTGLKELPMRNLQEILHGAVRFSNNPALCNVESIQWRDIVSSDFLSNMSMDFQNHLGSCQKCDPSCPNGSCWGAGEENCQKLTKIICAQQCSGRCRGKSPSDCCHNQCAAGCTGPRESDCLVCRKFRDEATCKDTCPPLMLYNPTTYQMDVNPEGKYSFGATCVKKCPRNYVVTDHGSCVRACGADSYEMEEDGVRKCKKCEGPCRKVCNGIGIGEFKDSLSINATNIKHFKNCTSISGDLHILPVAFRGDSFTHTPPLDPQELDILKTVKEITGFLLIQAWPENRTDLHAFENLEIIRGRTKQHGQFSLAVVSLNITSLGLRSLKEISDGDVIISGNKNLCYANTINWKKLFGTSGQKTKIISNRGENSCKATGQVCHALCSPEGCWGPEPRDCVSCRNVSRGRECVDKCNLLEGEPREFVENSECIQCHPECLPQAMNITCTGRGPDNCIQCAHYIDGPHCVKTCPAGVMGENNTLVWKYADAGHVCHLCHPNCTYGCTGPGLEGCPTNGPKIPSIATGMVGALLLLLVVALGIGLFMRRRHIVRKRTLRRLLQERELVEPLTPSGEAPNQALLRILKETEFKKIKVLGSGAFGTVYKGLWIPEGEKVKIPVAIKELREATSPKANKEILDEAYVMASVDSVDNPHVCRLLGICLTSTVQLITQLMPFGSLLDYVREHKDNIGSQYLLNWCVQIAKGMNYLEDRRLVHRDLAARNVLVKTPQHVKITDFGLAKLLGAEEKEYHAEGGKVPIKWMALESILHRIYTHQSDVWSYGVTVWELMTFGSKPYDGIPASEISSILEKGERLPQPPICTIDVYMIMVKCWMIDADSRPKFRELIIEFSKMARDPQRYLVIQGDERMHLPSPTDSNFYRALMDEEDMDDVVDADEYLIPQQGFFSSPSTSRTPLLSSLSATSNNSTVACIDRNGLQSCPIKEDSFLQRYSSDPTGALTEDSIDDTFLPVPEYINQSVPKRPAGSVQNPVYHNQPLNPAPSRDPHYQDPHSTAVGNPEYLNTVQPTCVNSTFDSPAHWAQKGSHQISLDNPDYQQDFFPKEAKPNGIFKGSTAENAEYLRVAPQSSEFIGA
In the next assay the test system is PC9 cells (EGFRex19del). Put plainly: PC9 proliferation assay (Cell Titer Glo). The conditions noted are these: Homo sapiens, PC-9, 72 h. Format: cell-based. The method, then:
Cellular Data Description (PC9 Cells, EGFRex19del)
as §1, with “PC9” for “HCC-827”, “PC9” for “HCC-829”, “(DMEM,” for “(RPM11640,”, “wells. The IC50 values were determined using the four parameter fit.” for “wells.”
In general terms: Cellular ATP, detected with luciferase, serves as a proxy for viable cell number.

Another assay concerns the target Ba/F3-EGFR L861Q cells (Homo sapiens, UniProt P00533, L861Q, cells depend on it). Put plainly: Ba/F3 cell survival assay, EGFR L861Q. Format: cell-based. The conditions noted are these: without IL-3, without EGF, 48 h; read-out: BA/F3 (EGFR L861Q) IC50. The method, then:
as §2, §3, §4, §5, §6

Assay [4] addresses Ba/F3-EGFR-E746_A750del cells (Homo sapiens, UniProt P00533, DEL746-750, cells depend on it). As to the kind of experiment: Ba/F3 cell survival assay, EGFR E746_A750del. The following applies: without IL-3, without EGF, 48 h; read-out: BA/F3 (EGFR E746_A750del) IC50. Format: cell-based. As to the method: as §2, §3, §4, §5, §6

A value given as a limit tells only on which side of the number the result lay.

Sequence of Ba/F3-EGFR-E746_A750del cells (P00533 with tags, fused parts or gaps DEL746-750): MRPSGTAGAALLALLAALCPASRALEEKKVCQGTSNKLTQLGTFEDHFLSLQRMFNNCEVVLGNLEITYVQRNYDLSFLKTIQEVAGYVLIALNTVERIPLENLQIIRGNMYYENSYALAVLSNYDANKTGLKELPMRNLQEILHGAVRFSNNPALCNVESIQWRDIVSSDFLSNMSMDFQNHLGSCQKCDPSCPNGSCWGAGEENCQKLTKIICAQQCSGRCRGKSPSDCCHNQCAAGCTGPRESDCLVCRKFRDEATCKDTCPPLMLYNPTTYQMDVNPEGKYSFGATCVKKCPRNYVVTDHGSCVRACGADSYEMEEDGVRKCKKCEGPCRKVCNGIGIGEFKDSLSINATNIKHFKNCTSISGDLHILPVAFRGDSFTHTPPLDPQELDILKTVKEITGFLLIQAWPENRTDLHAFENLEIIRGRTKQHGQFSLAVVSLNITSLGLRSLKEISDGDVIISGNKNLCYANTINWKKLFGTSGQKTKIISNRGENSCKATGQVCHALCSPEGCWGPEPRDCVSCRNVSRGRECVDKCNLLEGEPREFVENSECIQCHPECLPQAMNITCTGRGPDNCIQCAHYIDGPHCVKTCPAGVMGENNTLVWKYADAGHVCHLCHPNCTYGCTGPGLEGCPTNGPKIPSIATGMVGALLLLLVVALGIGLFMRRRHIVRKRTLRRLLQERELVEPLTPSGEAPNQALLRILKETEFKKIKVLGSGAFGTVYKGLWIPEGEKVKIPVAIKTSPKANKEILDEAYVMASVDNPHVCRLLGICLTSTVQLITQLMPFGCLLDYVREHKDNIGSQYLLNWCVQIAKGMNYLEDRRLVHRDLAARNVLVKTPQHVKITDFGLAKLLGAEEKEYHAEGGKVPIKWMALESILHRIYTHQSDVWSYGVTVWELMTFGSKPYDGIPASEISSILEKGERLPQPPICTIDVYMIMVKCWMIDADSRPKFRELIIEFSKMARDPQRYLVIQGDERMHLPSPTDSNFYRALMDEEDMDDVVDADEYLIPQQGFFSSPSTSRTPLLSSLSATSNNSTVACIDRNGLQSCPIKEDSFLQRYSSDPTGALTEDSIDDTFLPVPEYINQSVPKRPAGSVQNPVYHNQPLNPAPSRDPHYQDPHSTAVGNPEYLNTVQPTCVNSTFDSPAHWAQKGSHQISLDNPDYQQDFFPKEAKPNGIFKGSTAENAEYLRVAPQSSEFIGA
Sequence of Ba/F3-EGFR-L858R cells (P00533 whole entry L858R): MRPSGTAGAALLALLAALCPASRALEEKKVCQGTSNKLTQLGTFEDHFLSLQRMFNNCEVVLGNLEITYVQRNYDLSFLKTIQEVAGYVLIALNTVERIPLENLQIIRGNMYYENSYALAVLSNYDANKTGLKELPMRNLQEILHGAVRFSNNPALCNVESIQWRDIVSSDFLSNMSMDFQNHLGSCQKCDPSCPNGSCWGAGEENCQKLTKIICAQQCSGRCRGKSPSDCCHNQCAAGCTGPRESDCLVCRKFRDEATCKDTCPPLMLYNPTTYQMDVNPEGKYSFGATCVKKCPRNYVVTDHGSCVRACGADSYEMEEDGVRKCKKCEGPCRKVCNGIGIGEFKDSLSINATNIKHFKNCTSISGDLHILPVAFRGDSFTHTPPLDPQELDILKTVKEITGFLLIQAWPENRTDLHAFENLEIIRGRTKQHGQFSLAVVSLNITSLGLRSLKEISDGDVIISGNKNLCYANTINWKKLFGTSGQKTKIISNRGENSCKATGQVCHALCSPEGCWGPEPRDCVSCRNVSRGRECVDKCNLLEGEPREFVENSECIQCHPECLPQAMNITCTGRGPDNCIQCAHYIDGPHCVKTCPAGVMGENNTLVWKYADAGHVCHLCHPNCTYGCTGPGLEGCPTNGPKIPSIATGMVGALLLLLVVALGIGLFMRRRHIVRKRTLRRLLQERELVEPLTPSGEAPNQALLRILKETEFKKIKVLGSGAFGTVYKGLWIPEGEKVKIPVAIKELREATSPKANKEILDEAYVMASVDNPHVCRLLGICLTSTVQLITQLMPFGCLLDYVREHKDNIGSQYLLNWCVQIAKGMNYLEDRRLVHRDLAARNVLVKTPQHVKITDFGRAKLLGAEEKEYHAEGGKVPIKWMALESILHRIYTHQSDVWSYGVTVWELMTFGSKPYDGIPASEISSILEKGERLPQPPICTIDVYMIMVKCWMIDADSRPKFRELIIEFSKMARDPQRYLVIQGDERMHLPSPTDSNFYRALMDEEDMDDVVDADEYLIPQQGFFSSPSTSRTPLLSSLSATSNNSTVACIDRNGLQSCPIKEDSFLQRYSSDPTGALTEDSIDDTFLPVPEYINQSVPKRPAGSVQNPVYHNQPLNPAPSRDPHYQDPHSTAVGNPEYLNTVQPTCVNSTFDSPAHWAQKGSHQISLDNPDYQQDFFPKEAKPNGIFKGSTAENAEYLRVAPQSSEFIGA
T1 sequence (P00533 with tags, fused parts or gaps DUP768-770): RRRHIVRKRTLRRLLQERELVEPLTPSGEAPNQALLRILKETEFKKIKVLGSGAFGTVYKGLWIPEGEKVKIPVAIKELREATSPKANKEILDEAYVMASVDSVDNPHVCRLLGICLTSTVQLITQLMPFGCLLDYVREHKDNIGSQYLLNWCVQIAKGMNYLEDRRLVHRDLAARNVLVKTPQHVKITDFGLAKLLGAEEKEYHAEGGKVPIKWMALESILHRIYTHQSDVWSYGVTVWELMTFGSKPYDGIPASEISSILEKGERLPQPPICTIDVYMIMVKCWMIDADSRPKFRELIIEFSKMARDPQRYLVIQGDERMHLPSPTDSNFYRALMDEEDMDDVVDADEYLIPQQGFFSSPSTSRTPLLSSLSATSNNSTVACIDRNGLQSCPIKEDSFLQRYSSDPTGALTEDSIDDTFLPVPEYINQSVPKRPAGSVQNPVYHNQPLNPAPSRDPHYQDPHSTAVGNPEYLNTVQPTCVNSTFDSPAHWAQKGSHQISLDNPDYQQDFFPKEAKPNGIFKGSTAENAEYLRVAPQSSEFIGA

The term IC50 denotes the midpoint of a concentration-inhibition curve. Low readings indicate greater potency in that assay, high ones weaker potency in that assay. In the case of `Cc1c(Cl)cccc1Nc1c(-c2ccncc2OC[C@H]2COCCO2)[nH]c2c1C(=O)NCC2` (single isomer, unassigned) [Example 50], the “mutEGFR (D770_N771insSVD) kinase assay IC50” value in assay [1] was 0.17 nM. Also, the IC50 in assay [2] is under 3 nM; in the assay on PC9 cells (EGFRex19del) it was 6.82 nM. Besides, the GI50 at Ba/F3-EGFR-L858R cells was found to be 1.07 nM; in assay [3] it was 26.7 nM; at Ba/F3-EGFR L861Q cells it was 24 nM; in assay [4] it was 1.1 nM.

As for `O=C1NCCc2[nH]c(-c3ccncc3OCC3COCCO3)c(Nc3cccc(Cl)c3Cl)c21` (single isomer, unassigned) [Example 8, 3-(2,3-dichloroanilino)-2-{3-[(1,4-dioxan-2-yl)methoxy]pyridin-4-yl}-1,5,6,7-tetrahydro-4H-pyrrolo[3,2-c]pyridin-4-one], in assay [1], the “mutEGFR (D770_N771insSVD) kinase assay IC50” value came out at 0.0799 nM. Moreover, the IC50 in assay [2] was under 3 nM; in the assay with PC9 cells (EGFRex19del) it was 0.738 nM. The GI50 is 0.701 nM on Ba/F3-EGFR-L858R cells, 14.6 nM in assay [3], 13.7 nM on Ba/F3-EGFR L861Q cells and under 0.158 nM in assay [4].
